Laboratory results published in patent US11654140B2, “Treatment of ocular inflammatory diseases using laquinimod” (Active Biotech AB, priority 2012, dated 2023).

What was measured:
[1] = system: S-antigen-induced uveitis in albino rats; experiment: Ocular vs oral laquinimod in S-antigen-induced uveitis in albino rats, clinical score (Example 10); format: in vivo, rat; conditions: once daily, 7 days
[2] = system: subject suffering from an inflammation of the orbital tissue, the lacrimal apparatus, the eyelid, the cornea, the retina or the optic pathway; experiment: Laquinimod for treating inflammation in the eye (Example 7); format: in vivo; conditions: laquinimod composition, once daily
Method: (§1) In the examples 4-9 below, the administration of the composition is once daily. The administration can be repeated daily for a period of one, two, three or four days, up to 14 days, or longer as necessary.
A laquinimod composition as described herein is administered to a subject suffering from an inflammation of the orbital tissue, the lacrimal apparatus, the eyelid, the cornea, the retina or the optic pathway in the eye. The administration of the composition is effective to treat the subject suffering from the inflammation. The administration of the composition is also effective to reduce intraocular inflammation in the subject.

[3] = system: S-antigen-induced experimental autoimmune uveitis (EAU) in rats; experiment: S-antigen-induced experimental autoimmune uveitis in rats (EAU model), slit lamp clinical score (Example 1); format: in vivo, rat; conditions: for Slit lamp ocular evaluation of both eyes, Incidence % / Slit lamp ocular evaluation of both eyes, mean clinical score: 10 μl once daily both eyes from Day 7; for Slit lamp ocular evaluation of both eyes, mean clinical score: score 0-6
Method: (§2) A 1% (10 mg/ml) and a 5% (50 mg/ml) solution of laquinimod sodium were prepared in sterile water. Dissolution of laquinimod powder was achieved by shaking, stirring, or low-speed vortex. The solutions were stored for up to 2 weeks at 2-8° C. and up to 24 hours at room temperature. Laquinimod solutions were prepared under light protection and were protected from light for the duration of the experiment. […] One 100 mg/4 ml in olive oil dose was prepared every 2 days and stored at room temperature.
(§3) Thirty two female albino Lewis rats were randomly divided into four (4) groups of eight (8) rats. Ocular inflammation was induced at Day 1 by injection of 100 μl of human S-antigen (100 μg) in Freud's complete adjuvant (4 mg/ml) into the footpad of each rat, and an intraperitoneal injection of 1 μg/100 μl pertussis toxin.
(§4) Beginning on Day 7 until the end of the study, each animal group was treated with a test solution in both eyes as shown in Table 1:
Both eyes of each rat were examined with a slit-lamp at baseline and then every 2 days from Day 10 to the end of the study. Fifteen minutes prior to each examination, 10 μl of Mydriaticum (0.5% tropicamide) was instilled for papillary dilatation.
The effect of test material and reference material on ocular inflammation was measured with slit lamp evaluation and scored using the clinical scoring as shown in Table 3: […]

[4] = system: subject suffering from viral conjunctivitis; experiment: Laquinimod for treating viral conjunctivitis (Example 6); format: in vivo; conditions: laquinimod composition, once daily
Method: as §1
(§5) A laquinimod composition as described herein is administered to a subject suffering from viral conjunctivitis. The administration of the composition is effective to treat the subject suffering from viral conjunctivitis. The administration of the composition is also effective to reduce intraocular inflammation in the subject.

[5] = system: subject suffering from bacterial conjunctivitis; experiment: Laquinimod for treating bacterial conjunctivitis (Example 5); format: in vivo; conditions: laquinimod composition, once daily
Method: as §1
as §5, with “bacterial” for “viral”

[6] = system: subject suffering from uveitis; experiment: Laquinimod for treating uveitis (Example 4); format: in vivo; conditions: laquinimod composition administered to the eye, once daily
Method: In the examples 4-9 below, the administration of the composition is once daily. The administration can be repeated daily for a period of one, two, three or four days, up to 14 days, or longer as necessary. A laquinimod composition as described herein is administered to the eye of a subject suffering from uveitis. The administration of the composition is effective to treat the subject suffering from uveitis. The administration of the composition is also effective to reduce intraocular inflammation in the subject. The administration of the composition is also effective to reduce retina tissue destruction in the subject.

[7] = system: S-antigen-induced uveitis in albino rats; experiment: Ocular vs oral laquinimod in S-antigen-induced uveitis in albino rats, histological analysis (Example 10); format: in vivo, rat; conditions: for Histological ocular evaluation, % Inhibition: Day 19
[8] = system: S-antigen-induced experimental autoimmune uveitis (EAU) in rats; experiment: EAU model in rats, histological ocular evaluation (Example 1); format: in vivo, rat; conditions: Day 16; for Histological ocular evaluation of both eyes, mean histologic grade: 10 μl once daily both eyes from Day 7, scale 0-7
Method: as §2, §3, §4
Immediately after euthanasia (i.e., at Day 16), both eyeballs of all rats of each group were enucleated and prepared for histological examination. They were fixed in Bouin-Hollande solution, dehydrated, and embedded in paraffin wax. They were then cut into eight sections, approximate five to seven micrometers thick and stained with Trichome of Masson.

[9] = system: subject suffering from an OID; experiment: Laquinimod for treating OID (Example 9); format: in vivo; conditions: laquinimod composition, once daily
Method: as §1
A laquinimod composition as described herein is administered to a subject suffering from an OID. The administration of the composition is effective to treat the subject suffering from the OID. The administration of the composition is also effective to reduce intraocular inflammation in the subject.

[10] = Animal body weight and adverse clinical effects, ovalbumin study (Example 2); format: in vivo; conditions: laquinimod-treated mice, multiple topical administrations
Description: This weight loss is commonly observed during chronic corticosteroid treatments.

[11] = 1%, 1× 10 μl instillation/day for 7 days in both eyes
[12] = 1%, 1×/day for 7 days, 1 mL/kg, per os
[13] = 5%, 1× 10 μl instillation/day for 7 days in both eyes
[14] = 5%, 1×/day for 7 days, 1 mL/kg, per os

CCN(C(=O)c1c(O)c2c(Cl)cccc2n(C)c1=O)c1ccccc1 [Laquinimod, laquinimod]
% Inhibition of clinical score on Day 16 ([1]; 1% PO): 24%
% Inhibition of clinical score on Day 16 ([1]; 1% eye drops): −75%
% Inhibition of clinical score on Day 16 ([1]; 5% PO): 39%
% Inhibition of clinical score on Day 16 ([1]; 5% eye drops): 31%
reduce intraocular inflammation in the subject ([2]; inflammation in the eye): effective
treat the subject suffering from the inflammation ([2]; inflammation of orbital tissue, lacrimal apparatus, eyelid, cornea, retina or optic pathway): effective
Slit lamp ocular evaluation of both eyes, Incidence % ([3]; 1% Laquinimod, Baseline): 0.0%
Slit lamp ocular evaluation of both eyes, mean clinical score ([3]; 1% Laquinimod, Baseline): 0.0
Slit lamp ocular evaluation of both eyes, Incidence % ([3]; 1% Laquinimod, Day 10): 6.3%
Slit lamp ocular evaluation of both eyes, mean clinical score ([3]; 1% Laquinimod, Day 10): 0.1
Slit lamp ocular evaluation of both eyes, Incidence % ([3]; 1% Laquinimod, Day 12): 6.3%
Slit lamp ocular evaluation of both eyes, mean clinical score ([3]; 1% Laquinimod, Day 12): 0.1
Slit lamp ocular evaluation of both eyes, Incidence % ([3]; 1% Laquinimod, Day 14): 18.8%
Slit lamp ocular evaluation of both eyes, mean clinical score ([3]; 1% Laquinimod, Day 14): 0.8
Slit lamp ocular evaluation of both eyes, Incidence % ([3]; 1% Laquinimod, Day 16): 31.3%
Slit lamp ocular evaluation of both eyes, mean clinical score ([3]; 1% Laquinimod, Day 16): 1.3
Slit lamp ocular evaluation of both eyes, mean clinical score ([3]; 1% Laquinimod, Day 16, listed as laquinimod): 1.3±2.1
Slit lamp ocular evaluation of both eyes, Incidence % ([3]; 5% Laquinimod, Baseline): 0.0%
Slit lamp ocular evaluation of both eyes, mean clinical score ([3]; 5% Laquinimod, Baseline): 0.0
Slit lamp ocular evaluation of both eyes, Incidence % ([3]; 5% Laquinimod, Day 10): 0.0%
Slit lamp ocular evaluation of both eyes, mean clinical score ([3]; 5% Laquinimod, Day 10): 0.0
Slit lamp ocular evaluation of both eyes, Incidence % ([3]; 5% Laquinimod, Day 12): 0.0%
Slit lamp ocular evaluation of both eyes, mean clinical score ([3]; 5% Laquinimod, Day 12): 0.0
Slit lamp ocular evaluation of both eyes, Incidence % ([3]; 5% Laquinimod, Day 14): 6.3%
Slit lamp ocular evaluation of both eyes, mean clinical score ([3]; 5% Laquinimod, Day 14): 0.3
Slit lamp ocular evaluation of both eyes, Incidence % ([3]; 5% Laquinimod, Day 16): 12.5%
Slit lamp ocular evaluation of both eyes, mean clinical score ([3]; 5% Laquinimod, Day 16): 0.6
Slit lamp ocular evaluation of both eyes, mean clinical score ([3]; 5% Laquinimod, Day 16, listed as laquinimod): 0.6±1.5
rats tested that demonstrated no intraocular inflammation ([3]; 5% laquinimod solution once per day, Day 16): Six out of eight
treat the subject suffering from viral conjunctivitis [4]: effective
reduce intraocular inflammation in the subject ([4]; viral conjunctivitis): effective
treat the subject suffering from bacterial conjunctivitis [5]: effective
reduce intraocular inflammation in the subject ([5]; bacterial conjunctivitis): effective
treat the subject suffering from uveitis [6]: effective
reduce intraocular inflammation in the subject ([6]; uveitis): effective
reduce retina tissue destruction in the subject ([6]; uveitis): effective
Histological ocular evaluation (scale 0-7) Both Eyes/Day 19, mean [7, 11]: 2.8
Histological ocular evaluation, % Inhibition [7, 11]: 7.00%
Histological ocular evaluation (scale 0-7) Both Eyes/Day 19, mean [7, 12]: 2.3
Histological ocular evaluation, % Inhibition [7, 12]: 23.00%
Histological ocular evaluation (scale 0-7) Both Eyes/Day 19, mean [7, 13]: 1.8
Histological ocular evaluation, % Inhibition [7, 13]: 40.00%
Histological ocular evaluation (scale 0-7) Both Eyes/Day 19, mean [7, 14]: 1.2
Histological ocular evaluation, % Inhibition [7, 14]: 60.00%
Histological ocular evaluation of both eyes, mean histologic grade ([8]; 1% Laquinimod): 1.2
Histological ocular evaluation of both eyes, mean histologic grade ([8]; 1% Laquinimod, listed as laquinimod): 1.2±2.2
eyes showing significant destruction of the retina associated with infiltration of inflammatory cells ([8]; 1% laquinimod once per day): four eyes out of sixteen
Histological ocular evaluation of both eyes, mean histologic grade ([8]; 5% Laquinimod): 0.7
Histological ocular evaluation of both eyes, mean histologic grade ([8]; 5% Laquinimod, listed as laquinimod): 0.7±1.9
eyes showing destruction of the retina associated with infiltration of inflammatory cells ([8]; 5% laquinimod once per day): two eyes (from two different animals) out of sixteen
treat the subject suffering from the OID [9]: effective
reduce intraocular inflammation in the subject ([9]; OID): effective
adverse clinical effect [10]: No adverse clinical effect was observed
